Measured values from PubChem BioAssay AID2060327 (Molecular Pharmacology Branch, DTP, NCI, 2025).

System: PC-3 multi-cell spheroids, viability
Experiment: Anticancer human tumor PC-3 cell line growth inhibition [IpAb];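 note: spheroids exposed to compounds for 7 days before readout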;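 for viability, T/C: 100% = DMSO vehicle control wells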
Details: for IC50: curve of first compound; for viability, T/C: stronger effect = lower value
Procedure, shortened: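 Combinations with ipatasertib or abemaciclib were tested on tumour spheroids holding HUVEC (25%) and MSC (15%) alongside 60% malignant cells. Top concentration was at or near clinical Cmax (10 microM if undefined), descending in half-log steps.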

For `C=CC(=O)N1CCN(c2nc(=O)n(-c3c(C)ccnc3C(C)C)c3nc(-c4c(O)cccc4F)c(F)cc23)C(C)C1` (stereo not given) + CC(C)NCC(C(=O)N1CCN(c2ncnc3c2C(C)CC3O)CC1)c1ccc(Cl)cc1, which IC50 (second compound 0.1 µM) is on record?
The IC50 was > 10000 nM.

What about the IC50 (second compound 0.316 µM) of the same molecule?
The IC50 was < 31.6 nM.

What about the IC50 (second compound 1 µM) of the same molecule?
Its IC50 is < 31.6 nM.

And the IC50 (second compound 3.16 µM)?
Its IC50 is < 31.6 nM.

And the IC50 (second compound 10 µM)?
Its IC50 is < 31.6 nM.

What about the viability, T/C (second compound 0.1 µM, first compound 0.0316 µM) of the same molecule?
Its viability, T/C is 82%.

What about the viability, T/C (second compound 0.1 µM, first compound 0.1 µM) of the same molecule?
Its viability, T/C is 73.5%.

What about the viability, T/C (second compound 0.1 µM, first compound 0.316 µM) of the same molecule?
The viability, T/C was 72.8%.

And the viability, T/C (second compound 0.1 µM, first compound 1 µM)?
Its viability, T/C is 83.6%.

What about the viability, T/C (second compound 0.1 µM, first compound 3.16 µM) of the same molecule?
The viability, T/C was 99.1%.

And the viability, T/C (second compound 0.1 µM, first compound 10 µM)?
Its viability, T/C is 87.2%.

And the viability, T/C (second compound 0.316 µM, first compound 0.0316 µM)?
Its viability, T/C is 44.4%.

What about the viability, T/C (second compound 0.316 µM, first compound 0.1 µM) of the same molecule?
Its viability, T/C is 44.4%.

What about the viability, T/C (second compound 0.316 µM, first compound 0.316 µM) of the same molecule?
The viability, T/C was 43.7%.

What about the viability, T/C (second compound 0.316 µM, first compound 1 µM) of the same molecule?
Its viability, T/C is 34.7%.

What about the viability, T/C (second compound 0.316 µM, first compound 3.16 µM) of the same molecule?
The viability, T/C was 41.7%.

What about the viability, T/C (second compound 0.316 µM, first compound 10 µM) of the same molecule?
Its viability, T/C is 43.1%.

What about the viability, T/C (second compound 1 µM, first compound 0.0316 µM) of the same molecule?
Its viability, T/C is 26.5%.

What about the viability, T/C (second compound 1 µM, first compound 0.1 µM) of the same molecule?
Its viability, T/C is 27.1%.

And the viability, T/C (second compound 1 µM, first compound 0.316 µM)?
The viability, T/C was 27%.

What about the viability, T/C (second compound 1 µM, first compound 1 µM) of the same molecule?
Its viability, T/C is 25.8%.

What about the viability, T/C (second compound 1 µM, first compound 3.16 µM) of the same molecule?
The viability, T/C was 26.3%.

And the viability, T/C (second compound 1 µM, first compound 10 µM)?
The viability, T/C was 23.2%.

And the viability, T/C (second compound 3.16 µM, first compound 0.0316 µM)?
The viability, T/C was 15.1%.

What about the viability, T/C (second compound 3.16 µM, first compound 0.1 µM) of the same molecule?
The viability, T/C was 15%.

And the viability, T/C (second compound 3.16 µM, first compound 0.316 µM)?
Its viability, T/C is 15.5%.

What about the viability, T/C (second compound 3.16 µM, first compound 1 µM) of the same molecule?
The viability, T/C was 15.6%.

What about the viability, T/C (second compound 3.16 µM, first compound 3.16 µM) of the same molecule?
Its viability, T/C is 17.1%.

And the viability, T/C (second compound 3.16 µM, first compound 10 µM)?
The viability, T/C was 13.1%.

And the viability, T/C (second compound 10 µM, first compound 0.0316 µM)?
The viability, T/C was 14.6%.

What about the viability, T/C (second compound 10 µM, first compound 0.1 µM) of the same molecule?
Its viability, T/C is 13.7%.

And the viability, T/C (second compound 10 µM, first compound 0.316 µM)?
Its viability, T/C is 13.4%.

What about the viability, T/C (second compound 10 µM, first compound 1 µM) of the same molecule?
The viability, T/C was 14%.

And the viability, T/C (second compound 10 µM, first compound 3.16 µM)?
Its viability, T/C is 14.5%.

And the viability, T/C (second compound 10 µM, first compound 10 µM)?
Its viability, T/C is 7.96%.

`CC(C)(C)c1cnc(CSc2cnc(NC(=O)C3CCNCC3)s2)o1` + CC(C)NCC(C(=O)N1CCN(c2ncnc3c2C(C)CC3O)CC1)c1ccc(Cl)cc1 was tested. Which IC50 (second compound 0.1 µM) did it give?
The IC50 was 165 nM.

And the IC50 (second compound 0.316 µM)?
Its IC50 is 103 nM.

What about the IC50 (second compound 1 µM) of the same molecule?
The IC50 was < 9.49 nM.

What about the IC50 (second compound 3.16 µM) of the same molecule?
Its IC50 is < 9.49 nM.

What about the IC50 (second compound 10 µM) of the same molecule?
The IC50 was < 9.49 nM.

And the viability, T/C (second compound 0.1 µM, first compound 0.00949 µM)?
The viability, T/C was 80.2%.

What about the viability, T/C (second compound 0.1 µM, first compound 0.03 µM) of the same molecule?
Its viability, T/C is 98.4%.

What about the viability, T/C (second compound 0.1 µM, first compound 0.0949 µM) of the same molecule?
The viability, T/C was 95.3%.

And the viability, T/C (second compound 0.1 µM, first compound 0.3 µM)?
The viability, T/C was 4.14%.

What about the viability, T/C (second compound 0.1 µM, first compound 0.949 µM) of the same molecule?
The viability, T/C was 6.3%.

What about the viability, T/C (second compound 0.1 µM, first compound 3 µM) of the same molecule?
Its viability, T/C is 6.84%.

And the viability, T/C (second compound 0.316 µM, first compound 0.00949 µM)?
Its viability, T/C is 49.9%.

What about the viability, T/C (second compound 0.316 µM, first compound 0.03 µM) of the same molecule?
The viability, T/C was 46.9%.

What about the viability, T/C (second compound 0.316 µM, first compound 0.0949 µM) of the same molecule?
The viability, T/C was 64%.

What about the viability, T/C (second compound 0.316 µM, first compound 0.3 µM) of the same molecule?
The viability, T/C was 3.47%.

And the viability, T/C (second compound 0.316 µM, first compound 0.949 µM)?
Its viability, T/C is 5.07%.

What about the viability, T/C (second compound 0.316 µM, first compound 3 µM) of the same molecule?
Its viability, T/C is 5.91%.

And the viability, T/C (second compound 1 µM, first compound 0.00949 µM)?
The viability, T/C was 31.3%.

What about the viability, T/C (second compound 1 µM, first compound 0.03 µM) of the same molecule?
Its viability, T/C is 34.9%.

What about the viability, T/C (second compound 1 µM, first compound 0.0949 µM) of the same molecule?
Its viability, T/C is 36.7%.

What about the viability, T/C (second compound 1 µM, first compound 0.3 µM) of the same molecule?
The viability, T/C was 3.39%.

And the viability, T/C (second compound 1 µM, first compound 0.949 µM)?
The viability, T/C was 4.05%.

And the viability, T/C (second compound 1 µM, first compound 3 µM)?
Its viability, T/C is 5.41%.

What about the viability, T/C (second compound 3.16 µM, first compound 0.00949 µM) of the same molecule?
Its viability, T/C is 17.2%.

What about the viability, T/C (second compound 3.16 µM, first compound 0.03 µM) of the same molecule?
The viability, T/C was 19.3%.

And the viability, T/C (second compound 3.16 µM, first compound 0.0949 µM)?
Its viability, T/C is 19.5%.

What about the viability, T/C (second compound 3.16 µM, first compound 0.3 µM) of the same molecule?
Its viability, T/C is 3%.

And the viability, T/C (second compound 3.16 µM, first compound 0.949 µM)?
The viability, T/C was 3.25%.

What about the viability, T/C (second compound 3.16 µM, first compound 3 µM) of the same molecule?
Its viability, T/C is 4.47%.

And the viability, T/C (second compound 10 µM, first compound 0.00949 µM)?
The viability, T/C was 14.8%.

What about the viability, T/C (second compound 10 µM, first compound 0.03 µM) of the same molecule?
The viability, T/C was 16.8%.

What about the viability, T/C (second compound 10 µM, first compound 0.0949 µM) of the same molecule?
The viability, T/C was 10.1%.

And the viability, T/C (second compound 10 µM, first compound 0.3 µM)?
Its viability, T/C is 2.76%.

What about the viability, T/C (second compound 10 µM, first compound 0.949 µM) of the same molecule?
Its viability, T/C is 3.15%.

And the viability, T/C (second compound 10 µM, first compound 3 µM)?
The viability, T/C was 3.94%.
